Results taken from the supplement of paper PMC10627819.

What was measured:
S. aureus Newman [1] = assay: fitness (endpoint OD595 vs no drug) (fraction); higher = more growth
In short: (§1)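 Each well of a 384-well plate received 30 µl of culture at OD595 0.01, or 55 µl for S. pneumoniae. TSB, LB Lennox or CY served as media at 37 °C. OD595 was taken every 30 min for 14 h and corrected by subtracting the first reading. Fitness is the optical density at stationary-phase entry divided by the robust mean of no-drug controls, capped at 1.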

B. subtilis 168 [2] = assay: as above
In short: as §1

S. pneumoniae D39V [3] = assay: as above
In short: as §1

S. aureus DSM 20231 = assay: Bliss interaction score (quartile over a dose matrix) (fitness difference); higher = more antagonism (negative = synergy)
In short: (§2)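 The Bliss score is observed minus expected fitness, where expected fitness is the product of the single-drug fitness values inferred from the combination data. Fitness is the OD595 at the onset of stationary phase over the plate's robust no-drug mean, capped at 1. Scores are summarised by quartiles over technical, biological and donor/recipient replicates.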

S. aureus Newman [4] = assay: as above
In short: as §2

B. subtilis 168 [5] = assay: as above
In short: as §2

S. pneumoniae D39V [6] = assay: as above
In short: as §2
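Throughout, for Bliss interaction score (quartile over a dose matrix): first quartile when negative (synergy) and third quartile when positive (antagonism).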

CNC(C)C1CCC(N)C(OC2C(N)CC(N)C(OC3OCC(C)(O)C(NC)C3O)C2O)O1 (configuration not stated) [Gentamicin] + Cc1onc(-c2ccccc2)c1C(=O)N[C@@H]1C(=O)N2[C@@H]1SC(C)(C)[C@@H]2C(=O)O [Oxacillin]
fitness, one replicate, main component drawn
Conditions | partner 0.0078 µg/mL | partner 0.0155 µg/mL | partner 0.0156 µg/mL | partner 0.031 µg/mL | partner 0.0312 µg/mL | partner 0.0625 µg/mL | partner 0.075 µg/mL | partner 0.15 µg/mL | partner 0.3 µg/mL
B. subtilis 168 [2], first compound 0.0625 µg/mL | ≥ 1 | 0.976 | – | 0.948 | – | – | 0.663 | 0.033 | 0.0409
B. subtilis 168 [2], first compound 0.125 µg/mL | 0.923 | 0.907 | – | 0.92 | – | – | 0.0517 | 0.0783 | 0.0465
B. subtilis 168 [2], first compound 0.25 µg/mL | 0.265 | 0.218 | – | 0.171 | – | – | 0.0546 | 0.0554 | 0.0541
S. aureus Newman [1], first compound 0.375 µg/mL | – | – | 0.785 | – | 0.736 | 0.648 | – | – | –
S. aureus Newman [1], first compound 0.75 µg/mL | – | – | 0.741 | – | 0.709 | 0.632 | – | – | –
S. aureus Newman [1], first compound 1.5 µg/mL | – | – | 0.581 | – | 0.106 | 0.113 | – | – | –

main component drawn
Conditions | fitness
B. subtilis 168 [2], first compound 0.0625 µg/mL, partner 0.002 µg/mL | 0.899
B. subtilis 168 [2], first compound 0.0625 µg/mL, partner 0.004 µg/mL | 0.82
B. subtilis 168 [2], first compound 0.125 µg/mL, partner 0.002 µg/mL | 0.275
B. subtilis 168 [2], first compound 0.125 µg/mL, partner 0.004 µg/mL | 0.0851
B. subtilis 168 [2], first compound 0.125 µg/mL, partner 0.008 µg/mL | 0.0748
B. subtilis 168 [2], first compound 0.25 µg/mL, partner 0.002 µg/mL | 0.0462
B. subtilis 168 [2], first compound 0.25 µg/mL, partner 0.004 µg/mL | 0.0441
B. subtilis 168 [2], first compound 0.25 µg/mL, partner 0.008 µg/mL | 0.0454
S. aureus Newman [1], first compound 0.5 µg/mL, partner 0.0156 µg/mL | 0.82
S. aureus Newman [1], first compound 0.5 µg/mL, partner 0.0312 µg/mL | 0.782
S. aureus Newman [1], first compound 0.5 µg/mL, partner 0.0625 µg/mL | 0.672
S. aureus Newman [1], first compound 1 µg/mL, partner 0.0156 µg/mL | 0.851
S. aureus Newman [1], first compound 1 µg/mL, partner 0.0312 µg/mL | 0.776
S. aureus Newman [1], first compound 1 µg/mL, partner 0.0625 µg/mL | 0.765
S. aureus Newman [1], first compound 2 µg/mL, partner 0.0156 µg/mL | 0.901
S. aureus Newman [1], first compound 2 µg/mL, partner 0.0625 µg/mL | 0.666
S. pneumoniae D39V [3], first compound 2 µg/mL, partner 0.005 µg/mL | 0.985
S. pneumoniae D39V [3], first compound 2 µg/mL, partner 0.01 µg/mL | 0.995
S. pneumoniae D39V [3], first compound 2 µg/mL, partner 0.02 µg/mL | 0.953
S. pneumoniae D39V [3], first compound 2 µg/mL, partner 0.04 µg/mL | 0.55
S. pneumoniae D39V [3], first compound 4 µg/mL, partner 0.005 µg/mL | 0.999
S. pneumoniae D39V [3], first compound 4 µg/mL, partner 0.01 µg/mL | 0.982
S. pneumoniae D39V [3], first compound 4 µg/mL, partner 0.02 µg/mL | 0.947
S. pneumoniae D39V [3], first compound 4 µg/mL, partner 0.04 µg/mL | 0.549
S. pneumoniae D39V [3], first compound 8 µg/mL, partner 0.005 µg/mL | 0.963
S. pneumoniae D39V [3], first compound 8 µg/mL, partner 0.01 µg/mL | 0.985
S. pneumoniae D39V [3], first compound 8 µg/mL, partner 0.02 µg/mL | 0.939
S. pneumoniae D39V [3], first compound 8 µg/mL, partner 0.04 µg/mL | 0.553

main component drawn
Conditions | Bliss interaction score
B. subtilis 168 [5] | -0.0859
S. aureus DSM 20231 | 0.0545
S. aureus Newman [4] | 0.0666
S. pneumoniae D39V [6] | 0.104

Cc1onc(-c2ccccc2)c1C(=O)N[C@@H]1C(=O)N2[C@@H]1SC(C)(C)[C@@H]2C(=O)O [Oxacillin] + CN(C)c1cc(NC(=O)CNC(C)(C)C)c(O)c2c1C[C@H]1C[C@H]3[C@H](N(C)C)C(O)=C(C(N)=O)C(=O)[C@@]3(O)C(O)=C1C2=O [Tigecycline]
Conditions | fitness
B. subtilis 168 [2], first compound 0.002 µg/mL, partner 0.039 µg/mL | ≥ 1
B. subtilis 168 [2], first compound 0.002 µg/mL, partner 0.078 µg/mL | 0.976
B. subtilis 168 [2], first compound 0.002 µg/mL, partner 0.156 µg/mL | 0.992
B. subtilis 168 [2], first compound 0.004 µg/mL, partner 0.039 µg/mL | 0.963
B. subtilis 168 [2], first compound 0.004 µg/mL, partner 0.078 µg/mL | 0.943
B. subtilis 168 [2], first compound 0.004 µg/mL, partner 0.156 µg/mL | 0.95
B. subtilis 168 [2], first compound 0.008 µg/mL, partner 0.039 µg/mL | 0.998
B. subtilis 168 [2], first compound 0.008 µg/mL, partner 0.078 µg/mL | 0.945
B. subtilis 168 [2], first compound 0.008 µg/mL, partner 0.156 µg/mL | 0.962
S. aureus Newman [1], first compound 0.0156 µg/mL, partner 0.039 µg/mL | 0.794
S. aureus Newman [1], first compound 0.0156 µg/mL, partner 0.078 µg/mL | 0.798
S. aureus Newman [1], first compound 0.0156 µg/mL, partner 0.156 µg/mL | 0.778
S. aureus Newman [1], first compound 0.0312 µg/mL, partner 0.039 µg/mL | 0.751
S. aureus Newman [1], first compound 0.0312 µg/mL, partner 0.078 µg/mL | 0.762
S. aureus Newman [1], first compound 0.0312 µg/mL, partner 0.156 µg/mL | 0.745
S. aureus Newman [1], first compound 0.0625 µg/mL, partner 0.039 µg/mL | 0.641
S. aureus Newman [1], first compound 0.0625 µg/mL, partner 0.078 µg/mL | 0.663
S. aureus Newman [1], first compound 0.0625 µg/mL, partner 0.156 µg/mL | 0.688
S. pneumoniae D39V [3], first compound 0.01 µg/mL, partner 0.65 µg/mL | 0.928
S. pneumoniae D39V [3], first compound 0.01 µg/mL, partner 1.3 µg/mL | 0.951
S. pneumoniae D39V [3], first compound 0.01 µg/mL, partner 2.6 µg/mL | 0.957
S. pneumoniae D39V [3], first compound 0.02 µg/mL, partner 0.65 µg/mL | 0.904
S. pneumoniae D39V [3], first compound 0.02 µg/mL, partner 1.3 µg/mL | 0.891
S. pneumoniae D39V [3], first compound 0.02 µg/mL, partner 2.6 µg/mL | 0.875
S. pneumoniae D39V [3], first compound 0.04 µg/mL, partner 1.3 µg/mL | 0.463
S. pneumoniae D39V [3], first compound 0.04 µg/mL, partner 2.6 µg/mL | 0.531

fitness, B. subtilis 168 [2], one replicate
Conditions | first compound 0.0078 µg/mL | first compound 0.0155 µg/mL | first compound 0.031 µg/mL | first compound 0.075 µg/mL | first compound 0.15 µg/mL | first compound 0.3 µg/mL
partner 0.039 µg/mL | – | – | – | 0.507 | 0.0264 | 0.0457
partner 0.078 µg/mL | – | – | – | 0.549 | 0.0459 | 0.0479
partner 0.125 µg/mL | ≥ 1 | 0.964 | 0.968 | – | – | –
partner 0.156 µg/mL | – | – | – | 0.607 | 0.049 | 0.0616
partner 0.25 µg/mL | 0.962 | ≥ 1 | 0.923 | – | – | –
partner 0.5 µg/mL | ≥ 1 | 0.976 | 0.857 | – | – | –

Conditions | Bliss interaction score
B. subtilis 168 [5] | 0.0355
S. aureus DSM 20231 | -0.0365
S. aureus Newman [4] | 0.0567
S. pneumoniae D39V [6] | 0.0953
